Assays:
[1] = biological target: Serotonin 2 (5-HT2) receptor (Rattus norvegicus, UniProt P30994+P08909+P14842); test: In vitro inhibitory activity against [3H]ketanserin binding to 5-hydroxytryptamine 2 receptor; assay type: protein assay
[2] = tested on: Mus musculus; test: In vivo effective dose required to antagonize the apomorphine induced climbing response in mice administered intraperitoneally.; assay type: functional; conditions: ip
[3] = tested on: Mus musculus; test: In vivo effective dose required to antagonize the apomorphine induced climbing response in mice administered perorally; assay type: functional; conditions: po
[4] = biological target: T1, 5-hydroxytryptamine receptor 1A (Rattus norvegicus, UniProt P19327); test: In vitro inhibitory activity against [3H]8-OH-DPAT binding to 5-hydroxytryptamine 1A receptor
T1 sequence (P19327 whole entry): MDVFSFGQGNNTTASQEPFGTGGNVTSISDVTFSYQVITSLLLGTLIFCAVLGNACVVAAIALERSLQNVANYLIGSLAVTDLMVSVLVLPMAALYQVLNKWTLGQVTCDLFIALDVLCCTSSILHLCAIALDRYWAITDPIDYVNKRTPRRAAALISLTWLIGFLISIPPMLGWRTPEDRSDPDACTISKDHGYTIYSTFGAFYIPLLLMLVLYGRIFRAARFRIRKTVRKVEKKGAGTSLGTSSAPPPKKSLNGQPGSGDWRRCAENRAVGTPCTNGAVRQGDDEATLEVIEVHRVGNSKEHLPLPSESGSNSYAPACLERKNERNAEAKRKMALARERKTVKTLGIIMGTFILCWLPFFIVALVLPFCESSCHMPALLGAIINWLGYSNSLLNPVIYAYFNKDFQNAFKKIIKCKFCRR

[5] = tested on: Mus musculus; test: In vivo effective dose to induce catalepsy in mouse administered perorally.; assay type: functional; conditions: po
[6] = tested on: Mus musculus; test: In vivo effective dose to antagonize the apomorphine induced climbing response in stereotypy mouse administered perorally; assay type: functional; conditions: po
[7] = tested on: Mus musculus; test: In vivo effective dose to antagonize the apomorphine induced climbing response in stereotype mouse administered intraperitoneally; assay type: functional; conditions: ip
[8] = tested on: Mus musculus; test: In vivo effective dose to antagonize the apomorphine induced climbing response in mice administered perorally; assay type: functional; conditions: po
[9] = tested on: Mus musculus; test: In vivo effective dose to antagonize the apomorphine induced climbing response in mice administered intraperitoneally.; assay type: functional; conditions: ip
[10] = tested on: Mus musculus; test: In vivo effective dose to antagonize the apomorphine induced climbing response in stereotypy mouse administered perorally Value in parentheses is 95% confidence limits.; assay type: functional; conditions: po
[11] = tested on: Mus musculus; test: In vivo effective dose to antagonize the apomorphine induced climbing response in mice administered intraperitoneally. (value in bracket denotes 95% confidence limit); assay type: functional; conditions: ip
[12] = tested on: Mus musculus; test: In vivo effective dose to antagonize the apomorphine induced climbing response in mice administered perorally. value in bracket denotes 95% confidence limit); assay type: functional; conditions: po
[13] = tested on: Mus musculus; test: In vivo effective dose to induce catalepsy in mouse administered perorally. Value in parentheses is 95% confidence limits.; assay type: functional; conditions: po
[14] = tested on: Mus musculus; test: In vivo effective dose to antagonize the apomorphine induced climbing response in stereotype mouse administered intraperitoneally ( value in bracket indicates 95% confidence limit); assay type: functional; conditions: ip

IC50 [1]	IC50 [4]	Compound	ED50 [2]	ED50 [3]	other results
5.8 nM		Cc1cccc(C(=O)NCCCCN2CCN(c3nsc4ccccc34)CC2)c1N.Cl	5.4 mg/kg	37.6 mg/kg	
16 nM	120 nM	Cl.O=C(NCCCCN1CCN(c2nsc3ccccc23)CC1)c1c(O)ccc(Br)c1O	6 mg/kg	28.8 mg/kg	
6.3 nM	23 nM	CCc1cc(Cl)c(O)c(C(=O)NCCCCN2CCN(c3nsc4ccccc34)CC2)c1OC.Cl	25.5 mg/kg		
1.5 nM	9.1 nM	Cl.O=C(NCCCCN1CCN(c2nsc3ccccc23)CC1)c1ccc(C(F)(F)F)cc1	12.5 mg/kg	> 25 mg/kg	
2.3 nM	9 nM	COc1ccc(C(=O)NCCCCN2CCN(c3nsc4ccccc34)CC2)cc1.Cl	2.4 mg/kg	> 25 mg/kg	
1.3 nM	12 nM	CC(C)(C)OC(=O)Nc1cccc(C(=O)NCCCCN2CCN(c3nsc4ccccc34)CC2)c1.Cl	> 25 mg/kg		
1.8 nM	3.7 nM	Cl.[N-]=[N+]=Nc1ccccc1C(=O)NCCCCN1CCN(c2nsc3ccccc23)CC1			ED50 [9]: 25 mg/kg
5.6 nM	15 nM	Cl.O=C(NCCCCN1CCN(c2nsc3ccccc23)CC1)c1ccc(Cl)cc1	9.4 mg/kg	> 25 mg/kg	
26 nM	540 nM	Cl.O=C(NCCCCN1CCN(c2nsc3ccccc23)CC1)c1ccc(/N=N/c2ccccc2)cc1	> 25 mg/kg		
2.3 nM	12 nM	Cl.Nc1cc(C(F)(F)F)ccc1C(=O)NCCCCN1CCN(c2nsc3ccccc23)CC1	6.9 mg/kg	> 50 mg/kg	
8.9 nM	64 nM	Cc1cccc(N)c1C(=O)NCCCCN1CCN(c2nsc3ccccc23)CC1.Cl	> 25 mg/kg		
2.3 nM	1.2 nM	CN(CCCCN1CCN(c2nsc3ccccc23)CC1)C(=O)c1ccccc1N.Cl	> 12 mg/kg		
2.6 nM	6.6 nM	Cl.Nc1cccc(C(=O)NCCCCN2CCN(c3nsc4ccccc34)CC2)c1			
150 nM	23 nM	Cl.Nc1ccc(C(=O)NCCCCN2CCN(c3nsc4ccccc34)CC2)cc1	> 25 mg/kg		
2.1 nM	5.2 nM	Cl.O=C(NCCCCN1CCN(c2nsc3ccccc23)CC1)c1ccccc1	1.1 mg/kg	21.5 mg/kg	
3.3 nM	3.8 nM	Cl.Nc1ccccc1C(=O)NCCCCN1CCN(c2nsc3ccccc23)CC1			ED50 [10]: 91.1 mg/kg; ED50 [11]: 1.5 mg/kg; ED50 [12]: 10.1 mg/kg; ED50 [13]: 192 mg/kg; ED50 [14]: 10.2 mg/kg
12 nM	74 nM	COc1ccc(Br)c(OC)c1C(=O)NCCCCN1CCN(c2nsc3ccccc23)CC1.Cl	> 25 mg/kg		
2 nM	5.2 nM	CC(=O)Nc1ccccc1C(=O)NCCCCN1CCN(c2nsc3ccccc23)CC1.Cl	4.1 mg/kg	22.3 mg/kg	

The next lines start with the compound.

Compound	IC50 [1]	IC50 [4]	ED50 [2]	ED50 [3]	other results
Cl.Nc1cccc(F)c1C(=O)NCCCCN1CCN(c2nsc3ccccc23)CC1	1.6 nM	4.2 nM	7.8 mg/kg	20.8 mg/kg	
COc1c(Br)ccc(O)c1C(=O)NCCCCN1CCN(c2nsc3ccccc23)CC1.Cl	14 nM		4.7 mg/kg	> 25 mg/kg	
Cl.Nc1cccc(Cl)c1C(=O)NCCCCN1CCN(c2nsc3ccccc23)CC1	3.4 nM		> 25 mg/kg		
Cl.O=C(NCCCCN1CCN(c2nsc3ccccc23)CC1)c1ccccc1[N+](=O)[O-]	3.7 nM	6.4 nM	25 mg/kg		
Cl.Nc1c(F)cccc1C(=O)NCCCCN1CCN(c2nsc3ccccc23)CC1	0.5 nM	1.5 nM	0.9 mg/kg	14.3 mg/kg	ED50 [5]: 55.5 mg/kg; ED50 [6]: 46.7 mg/kg; ED50 [7]: 8.9 mg/kg
Cl.O=C(NCCCCN1CCN(c2nsc3ccccc23)CC1)c1ccccc1O	3.9 nM	12 nM	1 mg/kg		ED50 [8]: 21.5 mg/kg
CCc1cc(Cl)c(OC)c(C(=O)NCCCCN2CCN(c3nsc4ccccc34)CC2)c1O.Cl	6.8 nM	69 nM	> 25 mg/kg		
Cl.Nc1ccc(Cl)cc1C(=O)NCCCCN1CCN(c2nsc3ccccc23)CC1	1.6 nM	9.4 nM	< 6 mg/kg	25 mg/kg	
CNc1ccccc1C(=O)NCCCCN1CCN(c2nsc3ccccc23)CC1.Cl	12 nM	10 nM	5.8 mg/kg	15.6 mg/kg	ED50 [5]: 80.6 mg/kg; ED50 [6]: 65 mg/kg; ED50 [7]: 13.5 mg/kg
Cl.NNc1ccccc1C(=O)NCCCCN1CCN(c2nsc3ccccc23)CC1	2.4 nM	3.8 nM	10.8 mg/kg	40.4 mg/kg	
COc1ccc(N)c(C(=O)NCCCCN2CCN(c3nsc4ccccc34)CC2)c1.Cl	1.4 nM	10 nM	2.1 mg/kg	> 50 mg/kg	
Cl.Nc1cc(F)ccc1C(=O)NCCCCN1CCN(c2nsc3ccccc23)CC1	0.59 nM	4.2 nM	2.5 mg/kg	27.1 mg/kg	
Cl.O=C(NCCCCN1CCN(c2nsc3ccccc23)CC1)c1cc(Cl)cc(Cl)c1	1.7 nM	49 nM	> 25 mg/kg		
CC(C)[C@H](Nc1ccccc1C(=O)NCCCCN1CCN(c2nsc3ccccc23)CC1)C(=O)O.Cl	2.7 nM	5.4 nM		17.9 mg/kg	ED50 [5]: 44.5 mg/kg; ED50 [6]: 59.9 mg/kg; ED50 [7]: 26.9 mg/kg
COc1cccc(C(=O)NCCCCN2CCN(c3nsc4ccccc34)CC2)c1N.Cl	1.6 nM	4.1 nM	2.2 mg/kg	20.3 mg/kg	
Cl.Nc1ccc(F)cc1C(=O)NCCCCN1CCN(c2nsc3ccccc23)CC1	2.3 nM		2.2 mg/kg	31.8 mg/kg	
CCc1cc(Cl)c(OC)c(C(=O)NCCCCN2CCN(c3nsc4ccccc34)CC2)c1OC.Cl	30 nM	180 nM	26 mg/kg		
CC(C)[C@@H](Nc1ccccc1C(=O)NCCCCN1CCN(c2nsc3ccccc23)CC1)C(=O)O.Cl	1.6 nM	8.6 nM	> 25 mg/kg		
Cl.Nc1ccc([N+](=O)[O-])cc1C(=O)NCCCCN1CCN(c2nsc3ccccc23)CC1	3.8 nM	20 nM	19.6 mg/kg		
CC(=O)Nc1ccc(C(=O)NCCCCN2CCN(c3nsc4ccccc34)CC2)cc1.Cl	51 nM		> 25 mg/kg	> 25 mg/kg	
CC(C)(C)c1ccc(C(=O)NCCCCN2CCN(c3nsc4ccccc34)CC2)cc1.Cl	68 nM	520 nM		> 25 mg/kg	
CCOC(=O)Nc1ccccc1C(=O)NCCCCN1CCN(c2nsc3ccccc23)CC1.Cl	1.4 nM		1.8 mg/kg	32.8 mg/kg	
CN(CCCCN1CCN(c2nsc3ccccc23)CC1)C(=O)c1ccccc1.Cl	3.9 nM	1.4 nM	10 mg/kg	22.4 mg/kg	
COc1ccc(Br)c(O)c1C(=O)NCCCCN1CCN(c2nsc3ccccc23)CC1.Cl	15 nM	26 nM	1.5 mg/kg	14.3 mg/kg	ED50 [5]: 123 mg/kg; ED50 [6]: 87.5 mg/kg; ED50 [7]: 15.4 mg/kg
CC(C)(C)OC(=O)Nc1ccc(C(=O)NCCCCN2CCN(c3nsc4ccccc34)CC2)cc1.Cl	0.23 nM	0.7 nM	> 25 mg/kg		

From ChEMBL document CHEMBL1129740, “Structure-activity relationships of a series of substituted benzamides: potent D2/5-HT2 antagonists and 5-HT1a agonists as neuroleptic agents” (J Med Chem, 1996)
